These results are taken from patent publication US6855828B1, “Detection of hypoxia” (The Trustees of the University of Pennsylvania, priority 1992, dated 2005).

Molecules are shown by their SMILES. Where “and” joins values, the source holds several entries; their conditions need not be identical. Identical values can stand only once.

Data set [1] in a line: Tissue distribution of [^18F]-EF1 in rats bearing tumors (γ-counter). The conditions noted are these: tumor-bearing rat, I/V. Type of data set: in vivo. An excerpt:
(§1) Q7 cells were obtained from the American Type Culture Collection (ATCC). They were maintained in exponential growth by transfers at 3.5 day intervals with standard culture conditions. Growth medium was Eagle's MEM supplemented with 15% fetal calf serum and standard penicillin and streptomycin.
(§2) All animal studies conformed to the regulations of the University of Pennsylvania Institutional Animal Care and Use Committee. Male Buffalo rats (Harlan Sprague Dawley, Indianapolis, Ind., USA) were used for all studies. Donor tumors were created by injecting 1 million Q7 cells subcutaneously into the thigh region. The average growth time to achieve a 1 cm diameter tumor was 21 days. Tumors of less than 2 g were used in the experiments.
(§3) To measure the distribution of radioactive drug in various organs and tissues, the solution of [^18F]-EF1 in saline buffer was injected I/V into 2 male Buffalo rats. Animals was sacrificed and the samples of tissues were collected and weighted. The radioactivity of samples was measured by γ-counter and corrected for weight and the time of decay.
In particular, note that the density of radioactive counts closely parallels the findings from the image analysis. Results from 2 animals, are shown. PET and immunohistochemical images from both animals were very similar (data not shown)

Data set [2] concerns Morris 7777 hepatoma. Put plainly: PET image of tumor-bearing rat treated with [^18F]-EF1. The note with it: 150 minutes post injection. In kind it is in vivo. The method, then: FIG. 4 illustrates a PET image of a tumor-bearing rat treated with 18-F-labeled EF1 (2-(2-nitro-1H-imidazol-1-yl)-N-3-monofluoropropyl) acetamide, 150 minutes post injection.
as §1, §2
It is believed that this is the first PET image of a rodent tumor where substantial image modifications to eliminate gut clearance effects have not been necessary.

Data set [3] is described as follows: Distribution of [^18F]-EF1 in murine organs and tissues. In kind it is in vivo, mice. Further details: Distribution in murine tissues, Kidney / Distribution in murine tissues, Heart / Distribution in murine tissues, Muscle / Distribution in murine tissues, Liver / Distribution in murine tissues, Spleen: unit not given beside the values. The method, then: as §3
The distribution of radioactive drug in various murine organs and tissues was measured similarly to the previous example. [^18F]-EF1 was injected into 4 mice, which were sacrificed after 5 and 90 minutes and the radioactivity of tissues was measured.

Data set [4] deals with existing antibodies (to EF5 and EF3). Briefly: Affinity of existing antibodies towards EF1. Type of data set: binding.

With `O=C(Cn1ccnc1[N+](=O)[O-])NCCCF` [[^18F]-EF1, (2-(2-nitro-1H-imidazol-1-yl)-N-3-monofluoropropyl) acetamide], in data set [1] (3 hrs, Brain), the “Tissue distribution, Brain” value was 0.13 % dose/gram and 0.11 % dose/gram. Also, the “Tissue distribution, Kidney” value in data set [1] (3 hrs, Kidney) is 0.54 % dose/gram and 0.29 % dose/gram. Besides, the “Tissue distribution, Liver” value in data set [1] (3 hrs, Liver) is 0.25 % dose/gram and 0.21 % dose/gram. In addition, in data set [1] (3 hrs), the “Tissue distribution, Muscle” value was 0.17 % dose/gram and 0.13 % dose/gram; the “Tissue distribution, Tumor” value is 0.34 % dose/gram and 0.28 % dose/gram. Further, the “Tissue distribution, Spleen” value in data set [1] (3 hrs, Spleen) was 0.17 % dose/gram and 0.13 % dose/gram. In data set [1] (4 hrs), the “Tissue distribution, Muscle” value is 0.23 % dose/gram and 0.13 % dose/gram; the “Tissue distribution, Tumor” value is 0.64 % dose/gram and 0.44 % dose/gram. Besides, the “Visibility of tumor in PET image” value in data set [2] is on record as “clearly visible”. Also, in data set [3] (early times), the “Density of label in mouse-brain tissue compared with other organs” value is “substantially lower densities”. In data set [3] (mouse, 5 minutes), the “Distribution in murine tissues, Blood” value was 0.041 and 0.038; the “Distribution in murine tissues, Brain” value came out at 0.004; the “Distribution in murine tissues, Heart” value is 0.041 and 0.052; the “Distribution in murine tissues, Intestine” value was 0.037 and 0.039. In addition, in data set [3] (mouse, 5 minutes), the “Distribution in murine tissues, Kidney” value is 0.072 and 0.044; the “Distribution in murine tissues, Liver” value was 0.064 and 0.050; the “Distribution in murine tissues, Lung” value was 0.052 and 0.046; the “Distribution in murine tissues, Muscle” value was 0.038 and 0.031. Besides, in data set [3] (mouse, 5 minutes), the “Distribution in murine tissues, Spleen” value is 0.034 and 0.035; the “Distribution in murine tissues, Stomach” value was determined as 0.013; the “Distribution in murine tissues, Tibia” value is 0.045 and 0.042; the “Distribution in murine tissues, Urine” value was determined as 0.045. In data set [3] (mouse, 5 minutes, Cecum), the “Distribution in murine tissues, Cecum” value was 0.022 and 0.023. In addition, in data set [3] (mouse, 90 minutes), the “Distribution in murine tissues, Blood” value is 0.005 and 0.007; the “Distribution in murine tissues, Brain” value was 0.003 and 0.005; the “Distribution in murine tissues, Heart” value is 0.006 and 0.009; the “Distribution in murine tissues, Intestine” value is 0.014 and 0.012. In data set [3] (mouse, 90 minutes), the “Distribution in murine tissues, Kidney” value was 0.011 and 0.015; the “Distribution in murine tissues, Liver” value is 0.016 and 0.020; the “Distribution in murine tissues, Lung” value is 0.007 and 0.005; the “Distribution in murine tissues, Muscle” value was 0.005 and 0.009. In data set [3] (mouse, 90 minutes), the “Distribution in murine tissues, Spleen” value was 0.005 and 0.007; the “Distribution in murine tissues, Stomach” value is 0.007 and 0.009; the “Distribution in murine tissues, Tibia” value is 0.079 and 0.064; the “Distribution in murine tissues, Urine” value was 0.595 and 0.786. Moreover, the “Distribution in murine tissues, Esophagus” value in data set [3] (mouse, 90 minutes, Esophagus) was 0.012. Besides, the “Distribution in murine tissues, Tail” value in data set [3] (mouse, 90 minutes, Tail) is 0.071 and 0.051.

Consider `O=C(Cn1ccnc1[N+](=O)[O-])NCCCF` [EF1, (2-(2-nitro-1H-imidazol-1-yl)-N-3-monofluoropropyl) acetamide], for which the “Affinity of existing antibodies (to EF5 and EF3) towards compound” value in data set [4] is listed as “only a modest affinity”.
